Laboratory results as given in patent publication US11592438B2, “Device and method for force phenotyping of cells for high-throughput screening and analysis” (THE REGENTS OF THE UNIVERSITY OF CALIFORNIA, priority 2014, dated 2023).
No end group written: not given here.

Key:
[1] = system: primary human airway smooth muscle cells; assay: Pattern contraction / force generation screening of airway smooth muscle cells in 96 well plate; type: cell-based; conditions: for contraction of ASM cells (pattern deflection): ASM cells exposed to the compound
From the text: The image processing software 36 identifies all instances of a given molecular pattern 16 in an image stack and determines how many cells (e.g., 0, 1, or 2+) are adhered to each pattern 16 based on images of those cells 11 with stained nuclei. A MATLAB script opens the image files and pairs the stained nuclei images (e.g., DAPI images) with the fluorescent images of the patterns 16 (e.g., FITC images). The image processing software 36 calculates characteristic pixel length(s) of a given pattern 16 for the cases of no cells adhered and one (1) cell adhered. The ‘FITC’ images may be linearly scaled up with, for example, the MATLAB function ‘imresize’ to improve resolution of these measurements. For those patterns with zero cells adhered thereto, the center of each pattern 16 may be determined using binary center-of-mass calculations. For those patterns 16 with one (1) cell adhered thereto, a series of binary dilation and erosion operations, followed by a binary center-of-mass calculation on patterns is performed. The erosion/dilation procedure is used to remove the potential asymmetry in the pattern 16 arising from cell-induced deformations that would otherwise impact the location of the center of mass. Patterns 16 with two or more nuclei are not analyzed. For each processed pattern 16 (those that are crosses or “X” shaped), the diagonal distance in pixels is measured between the calculated center and the bright edge of the pattern 16 in each direction as illustrated in FIG. 10. […] These measurements are stored, converted to microns based on the magnification used (typically 10×). These lengths are normalized to the median of those measured in patterns 16 with no cells (nominally 0 pixel deformations which is used as a control) and a relative distribution plot for patterns with one (1) cell is generated (see FIG. 8). Cropped images of each pattern 16 screened by the image processing software 36 in a given location and the images of the corresponding cell nuclei on those patterns 16 are saved and may be reviewed if an execution error is suspected. FIG. 8 illustrates examples of cropped DAPI and FITC images.
FIGS. 6A and 6B illustrate another embodiment of the invention. In this embodiment, a substrate 40 such as a plate having apertures 42 formed therein (non-tapered) is adhered to the layer 12 such that individual wells 44 are formed over the surface of the layer 12 with each well 44 containing a plurality of fluorescent patterns 16. […]
These patterns 16 are then used as the controls. For example, similarly shaped patterns with no cells 11 thereon may have their respective dimensions measured and a baseline established that is representative of no deflection in the pattern 16. […]

[2] = system: HeLa cells; assay: Dose-response force phenotyping of HeLa cells in well-based embodiment; type: cell-based, human; conditions: increased concentration, FIG. 12A
From the text: The image processing software 36 identifies all instances of a given molecular pattern 16 in an image stack and determines how many cells (e.g., 0, 1, or 2+) are adhered to each pattern 16 based on images of those cells 11 with stained nuclei. A MATLAB script opens the image files and pairs the stained nuclei images (e.g., DAPI images) with the fluorescent images of the patterns 16 (e.g., FITC images). The image processing software 36 calculates characteristic pixel length(s) of a given pattern 16 for the cases of no cells adhered and one (1) cell adhered. The ‘FITC’ images may be linearly scaled up with, for example, the MATLAB function ‘imresize’ to improve resolution of these measurements. For those patterns with zero cells adhered thereto, the center of each pattern 16 may be determined using binary center-of-mass calculations. […] Patterns 16 with two or more nuclei are not analyzed. For each processed pattern 16 (those that are crosses or “X” shaped), the diagonal distance in pixels is measured between the calculated center and the bright edge of the pattern 16 in each direction as illustrated in FIG. 10. […] These lengths are normalized to the median of those measured in patterns 16 with no cells (nominally 0 pixel deformations which is used as a control) and a relative distribution plot for patterns with one (1) cell is generated (see FIG. 8). […]

enodthelin-1 (CSCSSLMDKECVYFCHLDIIW; ends and bridges not checked; cysteine pairing not given here; UniProt P05305 53-73, looked up) [contractile stimulus for ASM cells]
contraction of ASM cells (pattern deflection) ([1]; FIG. 11A): contraction

NCCc1c[nH]cn1 [histamine]
contraction of ASM cells (pattern deflection) ([1]; FIG. 11A): contraction

CC(C)(C)NCC(O)c1ccc(O)c(CO)c1 (centres unmarked) [albuterol]
relaxation of ASM cells ([1]; added after contraction in response to histamine, FIG. 11B): relaxation

Cc1ccc2c(c1)C(=O)C1(O)CCN(c3ccccc3)C1=N2 (centres unmarked) [blebbistatin]
deflection as function of concentration [2]: less deflection

O=S(=O)(c1cccc2c(I)cccc12)N1CCCNCC1 [ML-7]
relaxation of smooth muscle contraction (reduction in deflection amount) ([1]; added after contraction by acetylcholine, enodthelin-1 or histamine, FIG. 11A): shown to relax smooth muscle contraction
